The values that follow are results of earlier work, collected in patent publication US7148350B2, “Compounds in the form of homodimeric or heterodimeric pro-drugs; process for obtaining these pro-drugs and their acceptable pharmaceutical salts and use of compounds in the treatment of phosphodiesterases-mediated diseases or dysfunction” (Cristalia Prod.Qui.Farm. LTDA, priority 2000, dated 2006).

For data set [1] the following is noted: dimer versus isolated monomers.
Data set [2] has as its system granulocyte progenitor cells and macrophages. Conditions: dimer versus monomers.
Data set [3] deals with erectile dysfunction. As to conditions: oral administration; patients with organic erectile dysfunction.
The conditions of data set [4]: after administration; limited by pre-systemic metabolism.

As usually defined, the EC50 is the concentration giving half of the maximal effect. In the case of `Cc1cn([C@H]2C[C@H](N=[N+]=[N-])[C@@H](CO)O2)c(=O)[nH]c1=O` [AZT, zidovudine], the EC50 in data set [1] is 3.9 nM. Besides, the oral bioavailability (after oral administration of AZT-P-DDI) is on record as 64.7–67.3%.

As to `Cc1cn([C@H]2C[C@H](N=[N+]=[N-])[C@@H](COP(=O)(O)OC[C@@H]3CC[C@H](n4cnc5c(=O)[nH]cnc54)O3)O2)c(=O)[nH]c1=O` [AZT-P-DDI], in data set [1], the EC50 was 0.14 nM. The “less toxicity (fold)” value in data set [2] was 10 times. Moreover, where the note is “intravenous administration, 50 or 100 mg”, the “time after which plasmatic concentration is no longer detected” value was 30 min. Also, the “detection of the dimer after oral administration” value (oral administration) was “not detected”.

As to `O=c1[nH]cnc2c1ncn2[C@H]1CC[C@@H](CO)O1` [DDI, didanosine], the EC50 in data set [1] is 460 nM.

As to `COC(=O)[C@@H]1[C@H]2C[C@H]3c4[nH]c5ccccc5c4CCN3C[C@@H]2CC[C@@H]1O` [Yohimbine], the effectiveness entry in data set [3] is recorded as “low”.

Consider `CCCc1nn(C)c2c(=O)[nH]c(-c3cc(S(=O)(=O)N4CCN(C)CC4)ccc3OCC)nc12` [sildenafil], for which the absolute bioavailability in data set [4] was 40%.
